From patent US20040044043A1, “Thiazolidinedione derivative and its use as antidiabetic” (priority 2000, published 2004)

Columns and labels:
[1] = Solid state stability of the drug substance (storage, HPLC assay); assay type: physicochemical; settings: 1 month
Protocol: The solid state stability of the drug substance was determined by storing approximately 1.0 g of the material in a glass bottle at a) 40° C./75% Relative Humidity (RH), open exposure, for 1 month and b) at 50° C., closed, for 1 month. The material was assayed by HPLC for final content and degradation products in both cases.

[2] = Solubility in water (visual, confirmed by HPLC assay of a saturated solution); assay type: physicochemical; settings: thermodynamic from solid
Protocol: The visual solubility was confirmed by an HPLC assay of a saturated solution. Solubility: >100 mg/ml.

Degradation (HPLC degradation products) ([1]; 40° C./75% RH, open exposure): No significant degradation observed | HPLC assay for final content ([1]; 40° C./75% RH, open exposure): 99 % initial | Degradation (HPLC degradation products) ([1]; 50° C., closed): No significant degradation observed | HPLC assay for final content ([1]; 50° C., closed): 100 % initial | solubility [2]: > 100 mg/mL
SMILES: CCS(=O)(=O)O.CN(CCOc1ccc(CC2SC(=O)NC2=O)cc1)c1ccccn1 (centres unmarked) [Ethanesulfonate, 5-[4-[2-(N-methyl-N-(2-pyridyl)amino)ethoxy]benzyl]thiazolidine-2,4-dione ethanesulfonate]
